From patent US8906829B2, “Synergistic algicidal compositions including hydrazone derivatives and copper” (Dow AgroSciences LLC, priority 2010, dated 2014)

Columns and labels:
C. reinhardtii CC-1928 = test: Effect of copper on activity of hydrazones: in vitro growth inhibition of C. reinhardtii in TAP Cu minus / TAP Cu plus medium (Example 10); type: cell-based, Chlamydomonas reinhardtii; details: for inhibition of growth at 1 µg/mL: Chlamydomonas reinhardtii, TAP Cu minus medium, read-out: % Inhn. Minus Copper Observed; for inhibition of growth at 1 µg/mL / % Inhn. Plus Copper Observed: test compound 1 μg/mL, 48 h; for % Inhn. Plus Copper Observed: TAP Cu plus medium (CuCl2); for % Inhn. by copper chloride alone: CuCl2, 10 μM, TAP Cu plus vs TAP Cu minus without test compound, across experiments
In short: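 Washed cells (suspension 2×10^5 spores per mL) added to compound at 1 μg/mL in Chelex-treated TAP Cu minus or TAP Cu plus (20 μM CuCl2). After 48 h at 27 °C, growth read by light scattering; % inhibition vs compound-free wells, plus-Cu predicted values by Colby formula from minus-Cu data.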

C. reinhardtii = test: Growth inhibition of C. reinhardtii by hydrazones and isolated metal-hydrazone complexes, TAP Cu minus medium (Example 12); type: cell-based, Chlamydomonas reinhardtii; details: for inhibition of growth at 1 µg/mL: Chlamydomonas reinhardtii, parent hydrazone 1 μg/mL, read-out: Hydrazone % Inhn.; for Complex % Inhn.: isolated metal complex 1 μg/mL
Description: In vitro toxicity assays against C. reinhardtii CC-1928 (wild type mt+137c green in dark subclone) obtained from the Chlamydomonas Resource Center at Duke University were conducted using TAP liquid growth medium described by Gorman and Levine Proc. Natl. Acad. Sci. USA 1965, 54, 1665-1669 except that CuSO4.5H2O, normally included as a component of Hutner's trace element stock solution (Hutner et al. Proc. Am. Philos. Soc. 1950, 94, 152-170), was omitted. The TAP medium lacking Cu (TAP Cu minus) was prepared by adding 400 mg NH4Cl, 10 mL of 100× Tris-Acetate (242 g Tris-base and 100 mL glacial acetic acid in 1000 mL milli Q water), and 8.3 mL of 120.5× phosphate buffer (14.34 g K2HPO4 and 7.26 g KH2PO4 in 1000 mL milli Q water) to milli Q water to make a total volume of 1 liter. The medium was treated with 0.5 g Chelex 100 resin (Bio-Rad Analytical grade, 50-100 mesh, sodium form, cat#142-2822) by stirring at room temperature for 1 hour. 900 mL were decanted and 45.9 mg of CaCl2.2H2O, 90 mg of MgSO4.7H2O and 0.9 mL Hutner's trace elements lacking CuSO4.5H2O were added and the solution was filter-sterilized. Medium containing copper (TAP Cu plus) was prepared by adding CuCl2.2H2O to the TAP Cu minus medium at 20 μM. Test compounds were dissolved in dimethylsulfoxide (DMSO) at 2 mg/mL then dilutions in TAP Cu minus and TAP Cu plus media were prepared in sterilized microcentrifuge tubes at 2 μg/mL. 100 μL aliquots of diluted compound were dispensed into flat-bottomed 96-well microtiter plates. C. reinhardtii was maintained under 12 h of light on TAP agar plates at 18° C. A loopful of cells was added to 50 mL of TAP Cu minus medium and the culture incubated with shaking at 200 rpm at 27° C. for 24 h. The culture (10 to 20 mL aliquot) was centrifuged in a bench centrifuge at 2000 rpm for 2 min. The resulting cell pellet was resuspended in 5 mL sterile milli Q water (which had been treated with Chelex 100 resin using 0.5 g resin per liter of water by stirring at room temperature for 1 h), and recentrifuged. The cells were resuspended in TAP Cu minus medium, and the suspension adjusted to 2×10^5 spores per mL. Microtiter plates containing compounds as described above were inoculated with 100 μL of this cell suspension and the plates incubated at 27° C. for 48 h before assessing algal growth by measuring light scattering in a NepheloStar plate-reader. Growth inhibition was determined by comparing growth in the presence of test compound with growth in control wells lacking test compound. Hydrazones and their isolated metal complexes were compared with respect to their in vitro activity toward C. reinhardtii and the cyanobacterium (blue-green alga) Synechocystis sp. strain 6803. Metal complexes of hydrazones were prepared by precipitation from ethanol with various metal salts at 1:1, 2:1 or 3:1 molar ratios, as described in general by Ainscough, Brodie, Dobbs, Ranford, and Waters (Inorganica Chimica Acta 1998, 267, 27-38, which is expressly incorporated by reference herein). In vitro assays against C. reinhardtii were conducted as described in Example 10 using TAP Cu minus medium. Growth inhibition was determined by comparing growth in the presence of test compound with growth in control wells lacking test compound. Results for growth inhibition of C. reinhardtii by hydrazones and corresponding isolated metal complexes (each at 1 μg/mL) are shown in Table 6.

| Structure (SMILES) | inhibition of growth at 1 µg/mL (C. reinhardtii CC-1928) [%] | % Inhn. Plus Copper Observed (C. reinhardtii CC-1928) [%] | inhibition of growth at 1 µg/mL (C. reinhardtii) [%] | Complex % Inhn. (C. reinhardtii) [%] | % Inhn. by copper chloride alone (C. reinhardtii CC-1928) [%] | % Inhn. by copper chloride alone (C. reinhardtii CC-1928; listed as Copper chloride) |
| --- | --- | --- | --- | --- | --- | --- |
| C/C(=N\NC(=O)c1ccc(Cl)cc1)c1cc(Cl)cc(Cl)c1O [Compound 12] | 4 | 96 | 4 |  |  |  |
| O=C(N/N=C/c1c(Cl)ccc(Cl)c1O)c1ccc(Cl)cc1 [Compound 45] | 9 | 96 | 9 |  |  |  |
| O=C(N/N=C/c1c(C(F)(F)F)ccc(Cl)c1O)c1ccc(Cl)cc1 [Compound 56] | 11 | 97 | 11 |  |  |  |
| O=C(N/N=C/c1cc(C(F)(F)F)cc(C(F)(F)F)c1O)c1ccc(Cl)cc1 [Compound 32] | 21 | 97 | 21 |  |  |  |
| O=C(N/N=C/c1cccc(Cl)c1O)c1ccc(Cl)cc1 [Compound 52] | -4 | 88 | -4 |  |  |  |
| O=C(N/N=C/c1cc(Cl)cc(Cl)c1O)c1ccccc1O [Compound 7] | 29 | 94 | 29 |  |  |  |
| O=C(N/N=C/c1cc(Cl)cc(Br)c1O)c1ccccc1 [Compound 14] | 6 | 97 | 6 |  |  |  |
| O=C(NN=Cc1cc(Cl)cc(Cl)c1O)c1ccccc1.O=C(NN=Cc1cc(Cl)cc(Cl)c1O)c1ccccc1.[Cl-].[Cl-].[Zn+2] [Compound 78] |  |  |  | −5 |  |  |
| O=C(N/N=C/c1cc(Cl)cc(Cl)c1O)c1ccccc1.O=C(N/N=C/c1cc(Cl)cc(Cl)c1O)c1ccccc1.[Cl-].[Cl-].[Cu+2] [Compound 76] |  |  |  | 75 |  |  |
| O=C(N/N=C/c1cc(Cl)cc(C(F)(F)F)c1O)c1ccccc1 [Compound 27] | 30 | 96 | 30 |  |  |  |
| [Cl][Cu][Cl] [CuCl2, Copper chloride, reference compound] |  |  |  |  | −11.7 ± 6.0 | slight enhancement of growth |
| C/C(=N\NC(=O)c1ccc(C)cc1)c1cc(Cl)cc(Cl)c1O [Compound 26] | 5 | 94 |  |  |  |  |
| CC(=O)[O-].CC(=O)[O-].O=C(N/N=C/c1cc(Cl)cc(Cl)c1O)c1ccccc1.[Cu+2] [Compound 72] |  |  |  | 96 |  |  |
| O=C(N/N=C/c1ccc(Cl)c(Cl)c1O)c1ccccc1 [Compound 21] | 6 | 94 | 6 |  |  |  |
| O=C(N/N=C/c1cc(Cl)cc(Cl)c1O)c1ccccc1.[Cl-].[Cl-].[Cu+2] [Compound 75] |  |  |  | 95 |  |  |
| Cc1ccccc1C(=O)N/N=C/c1cc(Cl)cc(Cl)c1O [Compound 63] | -18 | 93 | -18 |  |  |  |
| O=C(N/N=C/c1cc(Cl)cc(Cl)c1O)c1ccccc1.O=C(N/N=C/c1cc(Cl)cc(Cl)c1O)c1ccccc1.O=S(=O)([O-])[O-].[Cu+2] [Compound 74] |  |  |  | 96 |  |  |
| CC(=O)[O-].CC(=O)[O-].O=C(N/N=C/c1cc(Cl)cc(Cl)c1O)c1ccccc1.O=C(N/N=C/c1cc(Cl)cc(Cl)c1O)c1ccccc1.[Cu+2] [Compound 73] |  |  |  | 96 |  |  |
| C/C(=N\NC(=O)c1ccccc1)c1cc(Cl)cc(Cl)c1O [Compound 6] | 13 | 98 | 13 |  |  |  |
| O=C(N/N=C/c1cc(Cl)cc(Cl)c1O)c1ccccc1 [Compound 1] | 16 | 96 | 16 |  |  |  |
| C/C(=N\NC(=O)c1cccc(C)c1)c1cc(Cl)cc(Cl)c1O [Compound 25, 3-methyl-benzoic acid [1-(3,5-dichloro-2-hydroxyphenyl)-ethylidene]-hydrazide] | 33 | 95 | 33 |  |  |  |
| O=C(N/N=C/c1cc(Cl)cc(Br)c1O)c1ccccc1O [Compound 18] | 13 | 95 | 13 |  |  |  |
| O=C(N/N=C/c1cc(Cl)cc(Br)c1O)c1ccc(Cl)cc1 [Compound 15] | 11 | 97 | 11 |  |  |  |
| O=C(N/N=C/c1cc(Cl)cc(Cl)c1O)c1ccccc1.O=C(N/N=C/c1cc(Cl)cc(Cl)c1O)c1ccccc1.[Cl-].[Cl-].[Mn+2] [Compound 77] |  |  |  | −1 |  |  |
